Tests used:
[1] = format: physicochemical; conditions: 10 mg/ml, after storing at 5 °C
Source text: The salts of th present invention allow one to prepare solutions of m-AMSA without the aid of dimethylacetamide. Depending upon the salt, concentration and temperature,standing may result in certain of the solutions of salts forming gels. However, a salt need only remain in solution for a period long enough for it to be administered to a patient.

mice = conditions: literature (Cain et al.); cited from earlier work

| Structure (SMILES) | Return of gelled solution to fluid state by warming to room temperature and shaking [1] | Activity in treating mammals in studies using mice (mice) |
| --- | --- | --- |
| COc1cc(NS(C)(=O)=O)ccc1Nc1c2ccccc2nc2ccccc12 [gluconate, 4'-(9-acridinylamino)methanesulfon-m-anisidide D-gluconate] | this could not be achieved |  |
| COc1cc(NS(C)(=O)=O)ccc1Nc1c2ccccc2nc2ccccc12 [m-AMSA, 4'-(9-acridinylamino)-methanesulfon-m-anisidide] |  | high degree of activity |

From patent US4399283A, “Pharmaceutical salts of 4'-(9-acridinylamino)-methanesulfon-m-anisidide” (Warner Lambert Company, priority 1981, dated 1983)
